# What was measured:
# [1] = test system: Alternaria brassicae; assay: In vivo test on Alternaria brassicae (leaf spot of crucifers), radish plants, preventive spray; conditions: for pest or weed control at 330 ppm: Alternaria brassicae, radish plants (Pernot), treated 24 h before contamination, grading 6 to 7 days after contamination vs control plants, read-out: protection (good, at least 50%, to total); for effectiveness on Alternaria brassicae: 330 ppm, comparison compounds of WO 01/11965
# Description: (§1) The active ingredient tested is prepared by potter homogenisation in a concentrated suspension type formulation at 100 g/l. This suspension is then diluted with water to obtain the desired active material concentration.
# Radish plants (Pernot variety) in starter cups, sown on a 50/50 peat soil-pozzolana substrate and grown at 18-20° C., are treated at the cotyledon stage by spraying with the aqueous suspension described above.
# Plants, used as controls, are treated with an aqueous solution not containing the active material.
# After 24 hours, the plants are contaminated by spraying them with an aqueous suspension of Alternaria brassicae spores (40,000 spores per cm^3). The spores are collected from a 12-13-day-old culture.
# The contaminated radish plants are incubated for 6-7 days at about 18° C., under a humid atmosphere.
# Grading is carried out 6 to 7 days after the contamination, in comparison with the control plants.
# [2] = test system: Pyrenophora teres; assay: In vivo test on Pyrenophora teres (barley net blotch), barley plants, preventive spray; conditions: 288 h, barley plants (Express), treated 24 h before contamination, grading 12 days after contamination vs control plants, read-out: protection (good, at least 50%, to total)
# Description: as §1
# (§2) Barley plants (Express variety) in starter cups, sown on a 50/50 peat soil-pozzolana substrate and grown at 12° C., are treated at the 1-leaf stage (10 cm tall) by spraying with the aqueous suspension described above. Plants, used as controls, are treated with an aqueous solution not containing the active material.
# After 24 hours, the plants are contaminated by spraying them with an aqueous suspension of Pyrenophora teres spores (12,000 spores per ml). The spores are collected from a 12-day-old culture. The contaminated barley plants are incubated for 24 hours at about 20° C. and at 100% relative humidity, and then for 12 days at 80% relative humidity.
# Grading is carried out 12 days after the contamination, in comparison with the control plants.
# [3] = test system: Botrytis cinerea; assay: In vivo test on Botrytis cinerea (gherkin grey mould), gherkin plants, preventive spray; conditions: 330 ppm; comparison compounds of WO 01/11965
# Description: as §1
# as §2, with “Gherkin” for “Barley”, “(Petit Vert de Paris” for “(Express”, “18-20°” for “12°”, “cotyledon Z11” for “1-leaf”, “stage” for “stage (10 cm tall)”
# After 24 hours, the plants are contaminated by depositing drops of an aqueous suspension of Botrytis cinerea spores (150,000 spores per ml) on upper surface of the leaves. The spores are collected from a 15-day-old culture and are suspended in a nutrient solution composed of: • 20 g/L of gelatin • 50 g/L of cane sugar • 2 g/L of NH4NO3 • 1 g/L of KH2PO4
# The contaminated gherkin plants are settled for 5/7 days in a climatic room at 15-11° C. (day/night) and at 80% relative humidity.
# Grading is carried out 5/7 days after the contamination, in comparison with the control plants. Under these conditions, good (at least 50%) or total protection is observed at a dose of 330 ppm with the following compounds: 38 and 57.
structure (smiles),measurement,setting,value
CC(CNC(=O)c1cc(Cl)ccc1Cl)c1ncc(C(F)(F)F)cc1Cl (stereo not drawn) [Compound 3],pest or weed control at 330 ppm,[1],≥ 50%
COc1ccccc1C(=O)NCC(C)c1ncc(C(F)(F)F)cc1Cl (stereo not drawn) [Compound 4],pest or weed control at 330 ppm,[1],≥ 50%
Cc1ccccc1C(=O)NCC(C)c1ncc(C(F)(F)F)cc1Cl (stereo not drawn) [Compound 7],pest or weed control at 330 ppm,[2],≥ 50%
same,pest or weed control at 330 ppm,[1],≥ 50%
Cc1cccc(C(=O)NCC(C)c2ncc(C(F)(F)F)cc2Cl)c1C (stereo not drawn) [Compound 8],pest or weed control at 330 ppm,[2],≥ 50%
same,pest or weed control at 330 ppm,[1],≥ 50%
Cc1ccc(C(=O)NCC(C)c2ncc(C(F)(F)F)cc2Cl)c(C)c1 (stereo not drawn) [Compound 9],pest or weed control at 330 ppm,[2],≥ 50%
same,pest or weed control at 330 ppm,[1],≥ 50%
Cc1ccc(C)c(C(=O)NCC(C)c2ncc(C(F)(F)F)cc2Cl)c1 (stereo not drawn) [Compound 10],pest or weed control at 330 ppm,[2],≥ 50%
same,pest or weed control at 330 ppm,[1],≥ 50%
CC(CNC(=O)c1cccc(Cl)c1F)c1ncc(C(F)(F)F)cc1Cl (stereo not drawn) [Compound 11],pest or weed control at 330 ppm,[1],≥ 50%
Cc1c(Cl)cccc1C(=O)NCC(C)c1ncc(C(F)(F)F)cc1Cl (stereo not drawn) [Compound 12],pest or weed control at 330 ppm,[1],≥ 50%
Cc1c(F)cccc1C(=O)NCC(C)c1ncc(C(F)(F)F)cc1Cl (stereo not drawn) [Compound 13],pest or weed control at 330 ppm,[2],≥ 50%
same,pest or weed control at 330 ppm,[1],≥ 50%
Cc1c(O)cccc1C(=O)NCC(C)c1ncc(C(F)(F)F)cc1Cl (stereo not drawn) [Compound 15],pest or weed control at 330 ppm,[1],≥ 50%
CCC(CNC(=O)c1cccc(OC)c1OC)c1ncc(C(F)(F)F)cc1Cl (stereo not drawn) [Compound 21],pest or weed control at 330 ppm,[1],≥ 50%
CCC(CNC(=O)c1ccccc1C)c1ncc(C(F)(F)F)cc1Cl (stereo not drawn) [Compound 23],pest or weed control at 330 ppm,[1],≥ 50%
CCC(CNC(=O)c1ccc(C)cc1C)c1ncc(C(F)(F)F)cc1Cl (stereo not drawn) [Compound 25],pest or weed control at 330 ppm,[1],≥ 50%
CCC(CNC(=O)c1cccc(O)c1C)c1ncc(C(F)(F)F)cc1Cl (stereo not drawn) [Compound 30],pest or weed control at 330 ppm,[2],≥ 50%
CC(CNC(=O)c1ccccc1C(F)(F)F)c1ncc(C(F)(F)F)cc1Cl (stereo not drawn) [Compound 32],pest or weed control at 330 ppm,[2],≥ 50%
same,pest or weed control at 330 ppm,[1],≥ 50%
CC(C)(CNC(=O)c1ccccc1C(F)(F)F)c1ncc(C(F)(F)F)cc1Cl [Compound 33],pest or weed control at 330 ppm,[2],≥ 50%
same,pest or weed control at 330 ppm,[1],≥ 50%
CCCC(CCC)(CNC(=O)c1ccccc1C(F)(F)F)c1ncc(C(F)(F)F)cc1Cl [Compound 35],pest or weed control at 330 ppm,[1],≥ 50%
CCCC(CCC)(CNC(=O)c1ccccc1I)c1ncc(C(F)(F)F)cc1Cl [Compound 36],pest or weed control at 330 ppm,[1],≥ 50%
CC(Cc1ncc(C(F)(F)F)cc1Cl)NC(=O)c1ccccc1C(F)(F)F (stereo not drawn) [Compound 38],pest or weed control at 330 ppm,[2],≥ 50%
same,pest or weed control at 330 ppm,[1],≥ 50%
"CCC(CNC(=O)c1ccccc1C(F)(F)F)c1ncc(C(F)(F)F)cc1Cl (stereo not drawn) [Compound 39, N-{2-[3-chloro-5-(trifluoromethyl)-2-Pyridinyl]butyl}-2-(trifluoromethyl)benzamide]",pest or weed control at 330 ppm,[2],≥ 50%
CCC(CNC(=O)c1ccccc1Br)c1ncc(C(F)(F)F)cc1Cl (stereo not drawn) [Compound 40],pest or weed control at 330 ppm,[2],≥ 50%
CCC(CNC(=O)c1ccccc1C(F)F)c1ncc(C(F)(F)F)cc1Cl (stereo not drawn) [Compound 41],pest or weed control at 330 ppm,[2],≥ 50%
CCCC(CNC(=O)c1ccccc1C(F)(F)F)c1ncc(C(F)(F)F)cc1Cl (stereo not drawn) [Compound 42],pest or weed control at 330 ppm,[1],≥ 50%
CCCC(CNC(=O)c1ccccc1Br)c1ncc(C(F)(F)F)cc1Cl (stereo not drawn) [Compound 43],pest or weed control at 330 ppm,[2],≥ 50%
same,pest or weed control at 330 ppm,[1],≥ 50%
CCCC(CNC(=O)c1ccccc1C(F)F)c1ncc(C(F)(F)F)cc1Cl (stereo not drawn) [Compound 44],pest or weed control at 330 ppm,[2],≥ 50%
"CCC(Cc1ncc(C(F)(F)F)cc1Cl)NC(=O)c1ccccc1C(F)(F)F (stereo not drawn) [Compound 47, N-(1-{[3-chloro-5-(trifluoromethyl)-2-Pyridinyl]methyl}propyl)-2-(trifluoromethyl)benzamide]",pest or weed control at 330 ppm,[2],≥ 50%
same,pest or weed control at 330 ppm,[1],≥ 50%
CC(NC(=O)c1ccccc1C(F)(F)F)C(C)c1ncc(C(F)(F)F)cc1Cl (stereo not drawn) [Compound 58],pest or weed control at 330 ppm,[2],≥ 50%
same,pest or weed control at 330 ppm,[1],≥ 50%
CC(NC(=O)c1ccccc1I)C(C)c1ncc(C(F)(F)F)cc1Cl (stereo not drawn) [Compound 59],pest or weed control at 330 ppm,[2],≥ 50%
same,pest or weed control at 330 ppm,[1],≥ 50%
CC(Cc1ccc(C(F)(F)F)c(Cl)n1)NC(=O)c1ccccc1C(F)(F)F (stereo not drawn) [Compound 61],pest or weed control at 330 ppm,[2],≥ 50%
CC(CNC(=O)c1ccccc1C(F)(F)F)c1ccc(C(F)(F)F)c(Cl)n1 (stereo not drawn) [Compound 62],pest or weed control at 330 ppm,[2],≥ 50%
same,pest or weed control at 330 ppm,[1],≥ 50%
CC(CNC(=O)c1ccccc1I)c1ccc(C(F)(F)F)c(Cl)n1 (stereo not drawn) [Compound 63],pest or weed control at 330 ppm,[2],≥ 50%
same,pest or weed control at 330 ppm,[1],≥ 50%
CC(CNC(=O)c1ccccc1Br)c1ccc(C(F)(F)F)c(Cl)n1 (stereo not drawn) [Compound 64],pest or weed control at 330 ppm,[2],≥ 50%
same,pest or weed control at 330 ppm,[1],≥ 50%
CC(CNC(=O)c1ccccc1C(F)(F)F)c1ccc(C(F)(F)F)cn1 (stereo not drawn) [Compound 66],pest or weed control at 330 ppm,[2],≥ 50%
same,pest or weed control at 330 ppm,[1],≥ 50%
CC(CNC(=O)c1ccccc1I)c1ccc(C(F)(F)F)cn1 (stereo not drawn) [Compound 67],pest or weed control at 330 ppm,[2],≥ 50%
same,pest or weed control at 330 ppm,[1],≥ 50%
"CCNC(=O)C(Cc1ncc(C(F)(F)F)cc1Cl)NC(=O)c1ccccc1 (stereo not drawn) [compound 304, N-{1-ethylcarbamoyl-2-[3-chloro-5-(trifluoromethyl)-2-pyridinyl]-ethyl}-benzamide]",effectiveness on Botrytis cinerea,[3],zero
"CCNC(=O)C(Cc1ncc(C(F)(F)F)cc1Cl)NC(=O)c1ccc(Cl)cc1 (stereo not drawn) [compound 306, N-{1-ethylcarbamoyl-2-[3-chloro-5-(trifluoromethyl)-2-pyridinyl]ethyl}-4-chlorobenzamide]",effectiveness on Botrytis cinerea,[3],zero
"CCNC(=O)C(Cc1ncc(C(F)(F)F)cc1Cl)NC(=O)c1cccc([N+](=O)[O-])c1 (stereo not drawn) [compound 307, N-{1-ethylcarbamoyl-2-[3-chloro-5-(trifluoromethyl)-2-pyridinyl]ethyl}-3-nitrobenzamide, reference compound]",effectiveness on Alternaria brassicae,[1],poor
same,effectiveness on Botrytis cinerea,[3],zero
"CCNC(=O)C(Cc1ncc(C(F)(F)F)cc1Cl)NC(=O)c1ccccc1Br (stereo not drawn) [compound 310, N-{1-ethylcarbamoyl-2-[3-chloro-5-(trifluoromethyl)-2-pyridinyl]ethyl}-2-bromobenzamide]",effectiveness on Botrytis cinerea,[3],zero
"CNC(=O)C(Cc1ncc(C(F)(F)F)cc1Cl)NC(=O)c1ccccc1 (stereo not drawn) [compound 314, N-{1-methylcarbamoyl-2-[3-chloro-5-(trifluoromethyl)-2-pyridinyl]ethyl}-benzamide]",effectiveness on Botrytis cinerea,[3],zero
"CNC(=O)C(Cc1ncc(C(F)(F)F)cc1Cl)NC(=O)c1ccc(OC)cc1 (stereo not drawn) [compound 315, N-{1-methylcarbamoyl-2-[3-chloro-5-(trifluoromethyl)-2-pyridinyl]ethyl}-4-methoxybenzamide]",effectiveness on Botrytis cinerea,[3],zero
"CNC(=O)C(Cc1ncc(C(F)(F)F)cc1Cl)NC(=O)c1ccc(-c2ccccc2)cc1 (stereo not drawn) [compound 316, N-{1-methylcarbamoyl-2-[3-chloro-5-(trifluoromethyl)-2-pyridinyl]-ethyl}-4-phenylbenzamide, reference compound]",effectiveness on Alternaria brassicae,[1],poor
same,effectiveness on Botrytis cinerea,[3],zero
